{"source": "patent US20230391732A1", "about": "“MULTI-EFFICACY PYRAZINE COMPOUND, PREPARATION METHOD AND USE THEREOF” (SHENZHEN OLIVE BIOPHARMACEUTICALS CO., LTD, priority 2020, published 2023)", "key": {"[1]": {"system": "db/db mice", "assay": "Glucose and lipid metabolism in db/db mice, 56 d administration", "format": "in vivo", "conditions": "TMP 5.0 mg/kg, OLB-3 13.32 mg/kg, mean±SEM, n=6", "protocol": "(§1) Mice of a normal control group (WT) and model mice were given normal saline 10 ml/kg/d, Losartan 15 mg/kg/d, TMP (5.0 mg/kg, 0.037 mmol/kg), and OLB-3 (13.32 mg/kg, 0.037 mmol/kg), at a volume of 10 mL/kg, once/d, for continuous administration of 56 d, blood lipids and blood glucose related indexes were measured after blood collection. Data were presented as mean±SEM; n=6 per group."}, "[2]": {"system": "db/db mice", "assay": "Biochemical and metabolic indicators in db/db mice, 56 d administration", "format": "in vivo", "conditions": "Losartan 15 mg/kg/d, TMP 5.0 mg/kg, OLB-3 13.32 mg/kg, n=6; for Urine albumin/creatinine: once/d for 56 d, mean, SEM"}, "[3]": {"system": "SH-SY5Y cells", "assay": "MTT assay of SH-SY5Y cell death caused by OGD", "format": "cell-based", "conditions": "4 h OGD, FIG. 1", "protocol": "A neuroprotective effect of tetramethylpyrazine (TMP) and derivatives thereof was evaluated by MTT assay. Cells were incubated, cells in the logarithmic growth phase were collected, a concentration of a cell suspension was adjusted, an MTT-containing medium was added after dosing treatment and 4 h of incubation with OGD, incubation was conducted for 4 h, the medium in the wells was carefully removed, and 150 μl of dimethyl sulfoxide (DMSO) was added to each well, followed by shaking at a low speed for 10 min on a shaker to fully dissolve crystals, and an absorbance value of each well was measured at an OD (absorbance) value of 490 nm of an enzyme-linked immunosorbent assay instrument (at the same time, a zero adjustment well (medium, MTT, DMSO) and a control well (cells, a drug dissolution medium with the same concentration, medium, MTT, DMSO) were set). Data were presented as mean±SEM; n=8 per group."}, "[4]": {"system": "SH-SY5Y neuroblastoma cells", "assay": "LPS-induced inflammatory factors in differentiated SH-SY5Y cells (ELISA)", "format": "cell-based", "conditions": "24 h, mean±SEM, n=8; for TNF-alpha: supernatant", "protocol": "(§2) The SH-SY5Y cells were recovered and incubated, and the cells in the logarithmic growth phase were taken. After 24 h of incubation, SH-SY5Y neuroblastoma cells were treated with 1 μM all-trans retinoic acid to induce differentiation, and then inoculated into a 6-well culture dish for 24 h of incubation. Then, 0.2 μM (L) or 1 μM (H) OLB-3 and 1 μg/mL LPS were added to the medium, and treated for 24 h, a supernatant medium was aspirated, and changes of inflammatory factors and oxidative stress-related proteins were measured by an ELISA kit. Data were presented as mean±SEM; n=8 per group."}, "[5]": {"system": "SH-SY5Y neuroblastoma cells", "assay": "LPS-induced oxidative stress-related proteins in differentiated SH-SY5Y cells (ELISA)", "format": "cell-based", "conditions": "24 h, mean±SEM, n=8", "protocol": "as §2"}, "[6]": {"system": "db/db mice", "assay": "Urinary protein level in db/db mice", "format": "in vivo", "conditions": "OLB-3 13.32 mg/kg once/d for 56 d, FIG. 2", "protocol": "as §1, with “10” for “15”, “m/kg,” for “mL/kg,”, “urine protein levels” for “blood lipids and blood glucose related indexes”, “urine” for “blood”"}, "[7]": {"system": "5*FAD mice", "assay": "Novel object recognition in 5*FAD mice", "format": "in vivo", "conditions": "6-month-old 5*FAD mice treated 3 months; 2.63 and 13.32 mg/kg; FIG. 3", "protocol": "(§3) 6-month-old 5*FAD mice were treated with OLB-3 for 3 months, and novel object recognition and Y-maze behavior were measured. Novel object recognition: during a training phase, the mice were exposed in a chamber to become familiar with two identical objects (A+A) for 5 min; during a testing phase, one of the familiar objects was replaced with another novel object (A+B), and the mice were put back in the chamber to detect probe objects for 5 min, while recording video and tracking the mice in real time. Probing was defined as a mouse with its nose pointed towards the object, sniffing or touching with its nose, and a distance of ≤2 cm was recorded from the nose to the object. A discriminant index (DI) is used to explore each object, and a calculation method thereof was as follows: (exploration time for new object−exploration time for old object)/(exploration time for new object+exploration time for old object)*100. Y-maze: an animal was placed at an end of one arm, and the sequence of the animals entering into each arm was recorded within 10 min. […] The 5*FAD mice were treated with low dosage (2.63 mg/kg, 0.007 mmol/kg, the same below) and high dosage (13.32 mg/kg, 0.037 mmol/kg, the same below) of the OLB-3 separately. Data were presented as mean±SEM; n=9-10 per group."}, "[8]": {"system": "5*FAD mice", "assay": "Y-maze in 5*FAD mice", "format": "in vivo", "conditions": "6-month-old 5*FAD mice treated 3 months; 2.63 and 13.32 mg/kg; FIG. 4", "protocol": "as §3"}, "[9]": {"system": "6-OHDA Parkinson's disease rats", "assay": "APO-induced rotations in 6-OHDA Parkinson's disease rats", "format": "in vivo", "conditions": "APO-induced 6-OHDA rats, 2 weeks of treatment; levodopa 25 mg/kg; FIG. 5", "source_text": "There was no rotations in a sham-operated group, and there was no significant difference between the groups injected with 6-OHDA, with about 180 rotations. […] Data were presented as mean±SEM; n=10 per group."}, "[10]": {"system": "ALS (SOD-G93A) mice", "assay": "Pole climbing test in ALS transgenic mice", "format": "in vivo", "conditions": "riluzole 5 mg/kg, FIG. 6", "source_text": "The pole climbing test is generally used to evaluate a movement coordination ability, movement delay of the limbs in mice, and muscle strength. A homemade wooden pole about 50 cm long and about 1 cm in diameter was wrapped with medical gauze to increase friction of the wooden pole. The wooden pole was put vertically on a horizontal table, the mouse tail was grabbed such that the mouse head was facing down, with limbs grabbing a top of the pole; the timer was started after releasing the mouse tail, and it was ensured that the mouse crawled downward without external force, and the time was recorded for the mouse to climb from the top of the pole to a bottom platform (a standard was that mouse hind limbs were landed on the ground). […] The average value of the mouse's three pole climbing times was calculated as the final pole climbing time. […] Data were presented as mean±SEM; n=10 per group."}, "[11]": {"system": "ALS (SOD-G93A) mice", "assay": "Limb grip force test in ALS transgenic mice", "format": "in vivo", "conditions": "riluzole 5 mg/kg, FIG. 7", "protocol": "The limb grip force test is used directly to assess muscle strength of mice and the incidence of mice. […] After the start of administration, the grip force of the mice was tested every two weeks, and the measurement was repeated three times for each mouse, and the maximum value among the three results was taken as a maximum grip force of the mice. […] Data were presented as mean±SEM; n=10 per group."}, "[12]": {"conditions": "Table 3, once/d for 56 d, Losartan 15 mg/kg/d"}, "[13]": {"conditions": "once/d for 56 d, Losartan 15 mg/kg/d"}, "[14]": {"conditions": "(H) high concentration (OLB-3 1 μM) + 1 μg/mL LPS"}, "[15]": {"conditions": "(L) low concentration (OLB-3 0.2 μM) + 1 μg/mL LPS"}}}
{"smiles": "CCCCc1nc(Cl)c(CO)n1Cc1ccc(-c2ccccc2-c2nn[nH]n2)cc1", "note": "[Losartan, reference compound]", "values": [{"measurement": "Creatinine", "setting": "[1]; [12]", "result": "42.12 ± 1.72(c) μmol/L"}, {"measurement": "Total cholesterol", "setting": "[1]; [13]", "result": "6.76 ± 0.46(c) mM"}, {"measurement": "Creatinine", "setting": "[2]; Table 4, once/d for 56 d", "result": "42.12 ± 1.72(c) μmol/L"}, {"measurement": "Urine albumin/creatinine", "setting": "[2]", "result": "582.74 ± 97.82(c) mg/g"}]}
{"smiles": "Cc1nc(C)c(C(=O)OCOC(=O)OCCc2ccc(O)cc2)nc1C", "note": "[OLB-3]", "values": [{"measurement": "death of SH-SY5Y cells caused by OGD (MTT)", "setting": "[3]", "result": "significantly reduce the death of SH-SY5Y cells caused by OGD"}, {"measurement": "TNF-alpha", "setting": "[4]; [14]", "result": "4.19 ± 0.77(c) pg/ml"}, {"measurement": "IL1", "setting": "[4]; [14]", "result": "4.27 ± 0.58(c) pg/ml"}, {"measurement": "IL6", "setting": "[4]; [14]", "result": "5.13 ± 0.63(c) pg/ml"}, {"measurement": "TNF-alpha", "setting": "[4]; [15]", "result": "7.34 ± 1.38(c) pg/ml"}, {"measurement": "IL1", "setting": "[4]; [15]", "result": "8.76 ± 1.56(c) pg/ml"}, {"measurement": "IL6", "setting": "[4]; [15]", "result": "9.34 ± 1.67(b) pg/ml"}, {"measurement": "GSH-Px", "setting": "[5]; [14]", "result": "17.51 ± 1.17(c) umol/mg"}, {"measurement": "MDA", "setting": "[5]; [14]", "result": "6.71 ± 0.51(c) nmol/mg"}, {"measurement": "SOD", "setting": "[5]; [14]", "result": "18.27 ± 1.02(c) nU/ml"}, {"measurement": "GSH-Px", "setting": "[5]; [15]", "result": "13.21 ± 1.92(c) umol/mg"}, {"measurement": "MDA", "setting": "[5]; [15]", "result": "11.10 ± 0.78(c) nmol/mg"}, {"measurement": "SOD", "setting": "[5]; [15]", "result": "14.96 ± 1.32(c) nU/ml"}, {"measurement": "Creatinine", "setting": "[1]; [12]", "result": "42.42 ± 2.73(c) μmol/L"}, {"measurement": "Urea", "setting": "[1]; [12]", "result": "7.42 ± 0.31(c) mmol/L"}, {"measurement": "Total cholesterol", "setting": "[1]; [13]", "result": "4.15 ± 0.18(c) mM"}, {"measurement": "Triglyceride", "setting": "[1]; [13]", "result": "9.61 ± 0.57(c) mg/dL"}, {"measurement": "Glucose determination", "setting": "[1]; once/d for 56 d", "result": "17.26 ± 1.42(c) mM"}, {"measurement": "Glycated hemoglobin", "setting": "[1]; once/d for 56 d", "result": "517.83 ± 47.26(c) nmol/L"}, {"measurement": "High-density lipoprotein cholesterol", "setting": "[1]; once/d for 56 d", "result": "1.62 ± 0.11(c) mM"}, {"measurement": "Low-density lipoprotein cholesterol", "setting": "[1]; once/d for 56 d", "result": "0.52 ± 0.02(c) mM"}, {"measurement": "Creatinine", "setting": "[2]; Table 4, once/d for 56 d", "result": "42.42 ± 2.73(c) μmol/L"}, {"measurement": "Urea", "setting": "[2]; Table 4, once/d for 56 d", "result": "7.42 ± 0.31(c) mmol/L"}, {"measurement": "Urine albumin/creatinine", "setting": "[2]", "result": "443.82 ± 78.34(c) mg/g"}, {"measurement": "urinary protein levels", "setting": "[6]", "result": "significantly reduced urinary protein levels"}, {"measurement": "time ratio to explore novel objects", "setting": "[7]", "result": "significantly increase a time ratio to explore novel objects"}, {"measurement": "time ratio in a novel different arm", "setting": "[8]", "result": "significantly increase a time ratio in a novel different arm"}, {"measurement": "number of rotations", "setting": "[9]", "result": "effectively reduce the number of rotations"}, {"measurement": "pole climbing time / bradykinesia", "setting": "[10]", "result": "significantly improve the symptoms of bradykinesia"}, {"measurement": "limb grip force", "setting": "[11]", "result": "effectively increase the limb force of mice"}]}
{"smiles": "Cc1nc(C)c(C)nc1C", "note": "[TMP, Tetramethylpyrazine, reference compound]", "values": [{"measurement": "Urine albumin/creatinine", "setting": "[2]", "result": "661.82 ± 89.54", "unit": "mg/g"}]}
{"smiles": "CN(C)C(=N)N=C(N)N", "note": "[metformin, reference compound]", "values": [{"measurement": "Glycated hemoglobin", "setting": "[1]; once/d for 56 d", "result": "628.52 ± 50.59(c) nmol/L"}, {"measurement": "High-density lipoprotein cholesterol", "setting": "[1]; once/d for 56 d", "result": "2.19 ± 0.12(a) mM"}, {"measurement": "Low-density lipoprotein cholesterol", "setting": "[1]; once/d for 56 d", "result": "0.59 ± 0.02(c) mM"}]}
{"smiles": "Nc1nc2ccc(OC(F)(F)F)cc2s1", "note": "[riluzole, reference compound]", "values": [{"measurement": "pole climbing time / bradykinesia", "setting": "[10]", "result": "significantly improve the symptoms of bradykinesia"}, {"measurement": "limb grip force", "setting": "[11]", "result": "effectively increase the limb force of mice"}]}
